According to the METLIN SMRT retention time set (Domingo-Almenara et al. 2019):

Test: gradient 5% acetonitrile 3 min, to 50% in 2 min, to 85% in 15 min, held 3 min, 100 µL/min
Settings: column: Zorbax Extend-C18 2.1 x 50 mm; eluents: water / acetonitrile, 0.1% formic acid
Method in brief: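 Retention times of pure standards were taken from adduct peaks that were selected by computer and manually inspected. Over 3 months, mixtures of ~100 molecules were run by HPLC–quadrupole time-of-flight mass spectrometry in positive and negative ionization mode. The Zorbax Extend-C18 column (2.1 × 50 mm, 1.8 μm) ran at 100 μL/min in water and acetonitrile, each containing 0.1% formic acid, with 40 μL dead volume and 900 μL dwell volume.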

Structure (SMILES) | RP-LC retention time
CCN(CC)C(=O)c1ccc2c(c1)N(CC(=O)N1CCN(c3ccccn3)CC1)C(=O)CS2 | 598 s
CN(Cc1ccccc1)C(=O)c1ccc2c(c1)N(CC(=O)N1CCCC1)C(=O)CO2 | 723 s
COc1ccc(CC(C)(O)CNC(=O)c2cc(C)oc2C)cc1 (stereo unspecified) | 739 s
Cc1ccc(OCC(=O)N2CCCCC2c2nncn2CC2CC2)cc1 (stereo unspecified) | 767 s
Cc1nnc(C2CCCCCN2C(=O)CCc2c(C)noc2C)o1 (stereo unspecified) | 674 s
CCc1nc2cc3c(cc2n1CC(=O)NC(C)c1ccc2c(c1)OCCCO2)OCCO3 (stereo unspecified) | 628 s
O=C(NC1CCCCCC1)c1ccc(-c2ccsc2)nc1 | 943 s
Cc1nnc(SCC(=O)NCc2ccccc2)c2nn(-c3ccccc3)c(C)c12 | 643 s
COc1ccc(S(=O)(=O)NCCc2c[nH]c3ccc(F)cc23)cc1 | 866 s
CCOC(=O)c1ccc(Nc2c(C(=O)N3CCCC(C)C3)cnc3nc(C)ccc23)cc1 (stereo unspecified) | 669 s
Cc1cccc(C)c1Nc1c(-c2ccccc2F)nc2cccc(C)n12 | 757 s
COc1ccc(CC(=O)Nc2cnn(-c3ncc(N(C)C)cn3)c2)c(Cl)c1 | 753 s
COc1ccc2[nH]c(=O)c(CCC(=O)NCCOc3ccccc3OC)cc2c1 | 681 s
COc1ccccc1NC(=O)NCC(c1cccnc1)c1c[nH]c2ccccc12 (stereo unspecified) | 657 s
COc1ccccc1CNC(=O)C1=C2CCCN2c2ccc(F)cc2S1(=O)=O | 882 s
CCCN(CCC)C(=O)Cn1c(CO)nc2ccccc21 | 623 s
COCCNC(=O)c1nnn(-c2ccc(F)cc2)c1-c1ccncc1 | 663 s
CC(C)C(=O)N1CCC(N2C[C@H](O)C[C@H]2C(=O)NC2CCCCC2)CC1 | 603 s
COc1ccccc1NC(=O)N(C)CCc1noc(COc2ccc(Cl)cc2)n1 | 972 s
Nc1nc(Nc2ccccc2Cl)nc2ccccc12 | 615 s
Cn1c(=O)c(N2CCC(NC(=O)Nc3ccc(Br)cc3)CC2)nc2ccccc21 | 977 s
CCn1c(=O)c(N2CCN(C(=O)c3cccs3)CC2)nc2cccnc21 | 900 s
O=c1[nH]c2ccc(S(=O)(=O)N3CCN(c4nc5ccccc5[nH]4)CC3)cc2o1 | 522 s

Structure (SMILES) | RP-LC retention time
CCNc1nc(C)cc(N2CCN(S(=O)(=O)c3ccc(OC)c(C)c3)CC2)n1 | 723 s
CCOCC(=O)NCc1ccc2c(c1)CCCN2C(=O)C1CCC1 | 750 s
CCCCN(CC)C(=O)C1CCCN(c2nccc(C)n2)C1 (stereo unspecified) | 752 s
CCOC(=O)c1cccc(NC(=O)Cn2ccc3ccc(-c4nnc(C)o4)cc32)c1 | 829 s
CCCn1cc(CCNC(=O)c2ccnn2CC)c2cccnc21 | 678 s
CN(CCCNC(=O)C1CCc2nc(N3CCOCC3)ncc2C1)c1ccccc1 (stereo unspecified) | 602 s
COc1cccc(CNC(=O)Cn2c(=O)c3cc(-c4cccs4)nn3c3ncccc32)c1 | 835 s
CCOc1ccc(C(=O)N2CCc3cc(-c4csc(C)n4)ccc32)cc1 | 1060 s
Cc1noc2ncnc(N3CCCC(C(=O)N4CCN(c5ccc(F)cc5)CC4)C3)c12 (stereo unspecified) | 846 s
CC(=O)NCc1csc(C2CCCN(C(=O)c3cccn3C)C2)n1 (stereo unspecified) | 612 s
Cc1ccc2c(c1)N(S(C)(=O)=O)CCC(C(=O)NCCC1=CCCCC1)O2 (stereo unspecified) | 993 s
CCn1cc(-c2ccc(Cl)cc2)cc1C(=O)N1CCN(C(C)C)CC1 | 717 s
COC[C@@H]1CN(C(=O)c2ccoc2C)C[C@H]1c1nc(C)no1 | 539 s
CCSc1nc2ccc(NS(=O)(=O)Cc3cc(C)ccc3C)cc2s1 | 1150 s
CCOc1ccc(NC(=O)c2cn(-c3cc(N4CCCC(C)C4)ncn3)cn2)cc1 (stereo unspecified) | 1130 s
CCN1C(=O)c2cccnc2Sc2cc(NC(=O)c3cccc(OC)c3)ccc21 | 826 s
C=C(C)[C@H]1O[C@H]2CC[C@@]3(C)[C@@](O)(CC[C@H]4[C@@H]5OC(C)(C)[C@H]6C[C@@H]7C(=C)Cc8c(Cl)cc9[nH]c(c5c9c8[C@@]76O)[C@@]43C)[C@]23O[C@@H]3[C@H]1O | 1180 s
COc1cc(NC(C)=O)c2ncccc2c1NC(C)=O | 631 s
Cc1noc([C@@H]2CN(Cc3ccc(F)c(Cl)c3)C[C@H]2CO)n1 | 605 s
COC(=O)c1ncn2c1C(=O)N(c1cc(C)cc(C)c1)C(C)(C(=O)NCc1ccccc1)C2 (stereo unspecified) | 747 s
O=C(Nc1ccc(CC(=O)N2CCOCC2)cc1)NC(c1ccccc1)c1ccccc1 | 740 s
CCNc1cc(N2CCC(CCC(=O)N3CCC(C)CC3)CC2)ncn1 | 548 s
Cc1ccc(NC(=O)N(C)CCc2noc(COc3ccccc3)n2)cc1 | 892 s

Structure (SMILES) | RP-LC retention time
CCN1C(=O)C2(CCN(C(=O)NCCC(C)C)CC2)c2ccccc21 | 854 s
COc1cc2ncnc(Nc3cccc(Br)c3)c2cc1OC | 771 s
CCn1nnc2c(N3CCN(S(=O)(=O)c4cccc(Cl)c4)CC3)ncnc21 | 880 s
CCCc1ccc(S(=O)(=O)Nc2ccc3nc(S(=O)(=O)CCC)sc3c2)cc1 | 1080 s
CNC(=O)c1cc(C)nc2c(C)cccc12 | 570 s
CCNC(=O)c1nn(-c2ccc(OC)c(OC)c2)c(OC)cc1=O | 626 s
Cc1cc(C)nc(NC(=O)NCCCSc2ccccn2)n1 | 671 s
CCc1ccc(N2C=NS(=O)(=O)c3cccnc32)cc1 | 853 s
CC(C)(C)c1cnc(CSc2cnc(NC(=O)C3CCNCC3)s2)o1 | 677 s
O=C(C1CC(=O)N(c2ccccc2)C1)N1CCC2(CC1)OCCS2 (stereo unspecified) | 682 s
COc1ccc(Cl)cc1S(=O)(=O)N1CCC(n2cnnc2C)CC1 | 684 s
CCCCOc1ccc(-c2nc(C3CC(=O)N(c4ccc(CC)cc4)C3)no2)cc1 (stereo unspecified) | 1390 s
O=C(c1cn2ccccc2n1)N1CCN(c2ccc(Cl)cc2)CC1 | 709 s
CCN(CC)C(=O)CSc1nnc(-c2ccc3c(c2)OCCCO3)n1C(C)C | 770 s
CCOC(=O)c1c(C)nc(C)c(C(=O)OCC)c1-c1cccnc1 | 810 s
O=C(Nc1ccccc1F)N1CC(c2nc(CCOCC3CC3)no2)C1 | 786 s
Cc1cc(C(=O)NC2CCc3nnc(C4CC4)n3CC2)c(C)n1Cc1ccco1 (stereo unspecified) | 660 s
Cn1c(=O)c2cc(C(=O)NCc3cccnc3)nn2c2ccccc21 | 599 s
COC(=O)CS(=O)c1ccc(C(F)(F)F)cc1[N+](=O)[O-] (stereo unspecified) | 730 s
CCOc1nc2ccccc2nc1N1CCCC(C(=O)Nc2cccc(Cl)c2)C1 (stereo unspecified) | 1290 s
Cc1cc(C(=O)NC(C)C)c2cc(F)ccc2n1 | 639 s
COc1ccc(NC(=O)C2CCCN(S(=O)(=O)c3c[nH]c(C(=O)N4CCCCCC4)c3)C2)cc1 (stereo unspecified) | 842 s
CNC(=O)N1CCc2ccc(C(=O)NC(C)(C)C)cc21 | 661 s

Structure (SMILES) | RP-LC retention time
CCOc1cc(=O)n2c(c1C(=O)Nc1cc(Cl)ccc1F)CCCC2 | 806 s
Nc1nccc(Oc2ccc(NC(=O)c3c[nH]cc(-c4ccc(F)cc4)c3=O)cc2F)c1Cl | 751 s
Cc1ccccc1-c1cc(C(=O)N2CCC(NC(=O)C3CCC(C)CC3)CC2)[nH]n1 (stereo unspecified) | 811 s
O=C(NCc1ccc(Br)cc1)c1ccc(-c2cncnc2)nc1 | 765 s
Cc1c(S(=O)(=O)N2CCCCC2)c(C)n(C)c1-c1nnc(C2CCC2)o1 | 1000 s
COc1ccc(-c2nnc(-c3ccc(OC)c(S(=O)(=O)N4CCCCCC4)c3)o2)cc1OC | 979 s
Nc1nc(N)nc(-c2cc(Cl)ccc2Cl)n1 | 714 s
O=C(c1cn(-c2cccc(Cl)c2)nn1)N1CCN(c2ccccc2F)CC1 | 882 s
Brc1ccc(Nc2nc(-c3ccccc3)cs2)nc1 | 1210 s
CCN1CCn2cc(S(=O)(=O)Nc3ccccc3F)cc2C1=O | 1070 s
O=C(Cn1nc2n(c1=O)CCCCC2)Nc1ccc(F)cc1 | 666 s
O=C1NC(C(=O)NC2CC2)Cn2cccc21 (stereo unspecified) | 569 s
Cc1cccc(-c2noc(Cn3c(=O)n(-c4ccccc4F)c(=O)c4sccc43)n2)c1 | 1030 s
COc1ccc(NC(=O)c2c(C)oc3c2C2=NCCN2C=N3)cc1Cl | 625 s
O=C(Cc1ccccc1)Nc1nnc(CCSCCc2nnc(NC(=O)Cc3ccccc3)s2)s1 | 933 s
Cc1cc(F)ccc1NC(=O)c1csc(-c2ccc(N3CCCC3)nc2)n1 | 768 s
Cc1ccc(C(C)NC(=O)c2ccc3[nH]cc(C(=O)C(=O)N4CCCCCC4)c3c2)c(C)c1 (stereo unspecified) | 919 s
CC(C(=O)NCCCN1CCN(C2CCCCC2)CC1)n1c(=O)c(C(F)(F)F)nc2ccccc21 (stereo unspecified) | 639 s
Cc1nc2cc(-c3noc(-c4ncoc4-c4ccccc4)n3)ccc2o1 | 1020 s
C=CCNC(=O)c1cnn(-c2ccc(-c3nc(C)no3)cn2)c1C | 750 s
C[C@H]1CN(C(=O)Nc2ccc(Cl)cc2)C[C@@H]1c1nc(-c2ccncc2)no1 | 821 s
COCCNCc1c(C(=O)O)c(C)n(Cc2ccc(Cl)cc2)c1C | 704 s
